Experimental data as given in patent publication US12268674B2, “Mi-2β inhibitor as an immunotherapy agent” (BioVentures, LLC, priority 2021, dated 2025).

Assays:
DDX18 = target: T1, DDX18 (Homo sapiens, UniProt Q9NVP1); assay: ATPase profile (ATP acyl phosphate probe); assay type: binding; details: DDX18, SEQ ID NO: 66, ATP BS
T1 construct: endogenous in cells; host or cells: A375 cell lysate

KIAA0564 = target: T2, KIAA0564 (Homo sapiens, UniProt A3KMH1); assay: ATPase profile (ATP acyl phosphate probe); assay type: binding; details: KIAA0564, SEQ ID NO: 113, ATP BS
T2 construct: to get the native cell lysate; endogenous in cells; host or cells: A375

[1] = Tolerability in C57BL/6 mice (body weight, H&E staining of tissues); assay type: in vivo; details: 30 mg/kg/day for 2 weeks
From the text: FIG. 11 illustrates In vitro assay for Mi-2β inhibitors. A, The inhibitory activity of Z36 for Mi-2β chromatin modulatory activity, measured as fold changes of Mi-2β activity treated with control vehicle. B, The inhibitory activity of Z36-MP5 with IC50 values against Mi-2β at different ATP concentrations. The curves from top to bottom: ATP 300 (μM), ATP 100 (μM), ATP 30 (μM), and ATP 10 (μM). C, The expression of Irf1, Cxc19 and Cxcl10 and Irf1 mRNA in B16F10 cells treated with Z36-MP5 as indicated concentration for 24 hours was determined with RT-qPCR assay. The four bars from left to right: vehicle control, Z36-MP5 5 μM, Z36-MP5 25 μM, and Z36-MP5 100 μM. D, Z36-MP5-treated (25 μM) GFP-labelled B16F10 cells were pretreated with 10 ng/ml of IFN-γ for 24 hours, before co-culture with activated Pmel-1 T cells at a ratio of 1:1 for three days. The fold changes of survival GFP-positive tumor cells were assayed with flow cytometry. Data presents as means±SD E, The body weight changes of C57BL/6J mice treated with Z36-MP5 (30 mg/kg/day) for 2 weeks. Data are mean±SEM (n=5). […]
Z36-MP5 was chosen for further validation and experimental therapeutics in vivo. […] To investigate its cellular inhibitory activity, B16-F10 cells were treated with Z36-MP5 at concentrations ranging from 5 to 100 μM, and the activation of Mi-2β target genes measured by RT-qPCR. […]

PSMC5 = target: T3, PSMC5 (Homo sapiens, UniProt P62195); assay: ATPase profile (ATP acyl phosphate probe); assay type: binding; details: PSMC5, SEQ ID NO: 177, ATP BS
T3 construct: to get the native cell lysate; endogenous in cells; host or cells: A375 cell lysate

SMC3 = target: T4, SMC3 (Homo sapiens, UniProt Q9UQE7); assay: ATPase profile (ATP acyl phosphate probe); assay type: binding; details: SMC3, SEQ ID NO: 194, ATP BS
T4 construct: to get the native cell lysate; endogenous in cells; host or cells: A375 cell lysate

CMPK1 = target: T5, CMPK1 (Homo sapiens, UniProt P30085); assay: ATPase profile (ATP acyl phosphate probe); assay type: binding; details: CMPK1, SEQ ID NO: 60, ATP BS
T5 construct: endogenous in cells; host or cells: A375 cell lysate

HPRT1 = target: T6, HPRT1 (Homo sapiens, UniProt P00492); assay: ATPase profile (ATP acyl phosphate probe); assay type: binding; details: HPRT1, SEQ ID NO: 93, ATP BS
T6 construct: to get the native cell lysate; endogenous in cells; host or cells: A375

PRPS1L1, PRPS2 = assay: ATPase profile (ATP acyl phosphate probe); assay type: binding; details: PRPS1L1, PRPS2, SEQ ID NO: 172, ATP BS
ATAD1 = target: T7, ATAD1 (Homo sapiens, UniProt Q8NBU5); assay: ATPase profile (ATP acyl phosphate probe); assay type: binding; details: ATAD1, SEQ ID NO: 44, ATP BS
T7 construct: to get the native cell lysate; host or cells: A375 cell lysate

NRK1 = target: T8, NRK1 (Homo sapiens, UniProt Q9NWW6); assay: ATPase profile (ATP acyl phosphate probe); assay type: binding; details: NRK1, SEQ ID NO: 137, ATP BS
T8 construct: to get the native cell lysate; endogenous in cells; host or cells: A375

MCM4 = target: T9, MCM4 (Homo sapiens, UniProt P33991); assay: ATPase profile (ATP acyl phosphate probe); assay type: binding; details: MCM4, SEQ ID NO: 118, ATP BS; read-out: Inhibition (%) by 1 μM Z36-MP5
T9 construct: to get the native cell lysate; endogenous in cells; host or cells: A375

EPRS = target: T10, EPRS (Homo sapiens, UniProt P07814); assay: ATPase profile (ATP acyl phosphate probe); assay type: binding; details: SEQ ID NO: 77, ATP BS
T10 construct: endogenous in cells; host or cells: A375 cell lysate

ABCF1 = target: T11, ABCF1 (Homo sapiens, UniProt Q8NE71); assay: ATPase profile (ATP acyl phosphate probe); assay type: binding; details: ABCF1, SEQ ID NO: 16, ATP BS
T11 construct: to get the native cell lysate; host or cells: A375 cell lysate

PRKAG1 = PRKAG1 (Homo sapiens, UniProt P54619); assay: ATPase profile (ATP acyl phosphate probe); assay type: binding
CCT7 = target: T12, CCT7 (Homo sapiens, UniProt Q99832); assay: ATPase profile (ATP acyl phosphate probe); assay type: binding; details: CCT7, SEQ ID NO: 55, ATP BS
T12 construct: host or cells: A375 cell lysate

PSMC6 = target: T13, PSMC6 (Homo sapiens, UniProt P62333); assay: ATPase profile (ATP acyl phosphate probe); assay type: binding; details: PSMC6, SEQ ID NO: 178, ATP BS
T13 construct: to get the native cell lysate; endogenous in cells; host or cells: A375 cell lysate

ABCB7 = target: T14, ABCB7 (Homo sapiens, UniProt O75027); assay: ATPase profile (ATP acyl phosphate probe); assay type: binding; details: ABCB7, SEQ ID NO: 4, ATP BS
T14 construct: to get the native cell lysate; host or cells: A375 cell lysate

PSMD9 = PSMD9 (Homo sapiens, UniProt O00233); assay: ATPase profile (ATP acyl phosphate probe); assay type: binding; details: PSMD9, SEQ ID NO: 179, ATP BS; read-out: Inhibition (%) by 1 μM Z36-MP5
HSP90B2P, TRA1 = target: T15, HSP90B2P, TRA1 (Homo sapiens, UniProt P14625); assay: ATPase profile (ATP acyl phosphate probe); assay type: binding; details: TRA1, SEQ ID NO: 99, ATP BS, read-out: Inhibition (%) by 1 μM Z36-MP5
T15 construct: to get the native cell lysate; endogenous in cells; host or cells: A375

Sequence of PRKAG1 (P54619 whole entry): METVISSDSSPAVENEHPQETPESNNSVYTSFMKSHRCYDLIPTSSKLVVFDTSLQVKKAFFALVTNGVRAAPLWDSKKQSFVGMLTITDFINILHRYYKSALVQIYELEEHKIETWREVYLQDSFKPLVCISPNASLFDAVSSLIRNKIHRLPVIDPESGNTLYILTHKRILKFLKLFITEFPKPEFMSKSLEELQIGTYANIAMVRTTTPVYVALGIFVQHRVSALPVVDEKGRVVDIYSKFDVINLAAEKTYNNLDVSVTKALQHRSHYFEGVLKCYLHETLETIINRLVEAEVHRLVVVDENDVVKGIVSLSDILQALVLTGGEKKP
Sequence of PRKAG1 (Q13131 whole entry partner): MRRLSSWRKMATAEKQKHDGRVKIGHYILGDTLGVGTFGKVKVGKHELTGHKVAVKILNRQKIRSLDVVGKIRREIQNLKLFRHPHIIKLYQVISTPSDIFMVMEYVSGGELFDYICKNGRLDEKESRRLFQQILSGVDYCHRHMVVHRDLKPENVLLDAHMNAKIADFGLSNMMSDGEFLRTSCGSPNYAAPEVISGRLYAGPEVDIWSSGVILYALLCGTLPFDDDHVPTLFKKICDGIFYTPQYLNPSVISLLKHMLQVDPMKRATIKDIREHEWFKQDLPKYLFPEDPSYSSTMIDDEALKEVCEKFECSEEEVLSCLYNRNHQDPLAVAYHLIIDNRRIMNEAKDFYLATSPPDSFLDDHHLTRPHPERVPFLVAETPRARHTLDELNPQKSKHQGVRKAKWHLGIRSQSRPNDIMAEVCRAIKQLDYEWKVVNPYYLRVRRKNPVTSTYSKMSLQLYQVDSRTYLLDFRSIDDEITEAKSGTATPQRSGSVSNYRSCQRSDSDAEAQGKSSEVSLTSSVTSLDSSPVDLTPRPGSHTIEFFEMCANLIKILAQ
Sequence of PRKAG1 (Q9Y478 whole entry partner): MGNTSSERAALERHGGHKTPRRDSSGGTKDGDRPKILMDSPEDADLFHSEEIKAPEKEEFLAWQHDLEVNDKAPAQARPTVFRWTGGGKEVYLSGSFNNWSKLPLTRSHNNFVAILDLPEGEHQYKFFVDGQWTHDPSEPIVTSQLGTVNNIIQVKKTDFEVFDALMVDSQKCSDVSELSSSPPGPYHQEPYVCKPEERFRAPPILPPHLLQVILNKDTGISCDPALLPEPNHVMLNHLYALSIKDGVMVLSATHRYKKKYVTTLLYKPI
T11 sequence (Q8NE71 whole entry): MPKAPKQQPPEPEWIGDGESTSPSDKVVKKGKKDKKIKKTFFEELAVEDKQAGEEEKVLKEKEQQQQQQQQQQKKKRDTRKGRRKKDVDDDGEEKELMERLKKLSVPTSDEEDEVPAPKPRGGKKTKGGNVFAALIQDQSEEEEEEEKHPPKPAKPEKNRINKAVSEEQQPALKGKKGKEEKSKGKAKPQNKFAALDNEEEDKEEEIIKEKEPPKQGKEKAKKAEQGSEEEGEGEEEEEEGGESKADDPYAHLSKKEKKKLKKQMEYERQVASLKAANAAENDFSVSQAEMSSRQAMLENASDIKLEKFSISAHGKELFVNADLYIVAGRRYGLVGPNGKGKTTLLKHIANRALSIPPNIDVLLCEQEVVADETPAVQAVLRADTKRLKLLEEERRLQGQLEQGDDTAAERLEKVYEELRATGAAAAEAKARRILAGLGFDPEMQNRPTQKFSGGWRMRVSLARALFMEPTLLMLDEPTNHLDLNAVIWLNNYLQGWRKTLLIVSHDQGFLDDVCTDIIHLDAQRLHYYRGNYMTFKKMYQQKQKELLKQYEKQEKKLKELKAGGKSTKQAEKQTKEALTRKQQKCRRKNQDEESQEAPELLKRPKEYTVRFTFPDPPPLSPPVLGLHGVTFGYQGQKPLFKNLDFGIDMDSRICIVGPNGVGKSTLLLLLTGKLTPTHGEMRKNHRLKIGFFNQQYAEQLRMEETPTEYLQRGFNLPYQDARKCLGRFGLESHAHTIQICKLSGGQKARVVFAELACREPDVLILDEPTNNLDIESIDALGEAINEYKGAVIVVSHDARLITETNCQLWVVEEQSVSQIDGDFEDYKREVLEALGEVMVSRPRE
T8 sequence (Q9NWW6 whole entry): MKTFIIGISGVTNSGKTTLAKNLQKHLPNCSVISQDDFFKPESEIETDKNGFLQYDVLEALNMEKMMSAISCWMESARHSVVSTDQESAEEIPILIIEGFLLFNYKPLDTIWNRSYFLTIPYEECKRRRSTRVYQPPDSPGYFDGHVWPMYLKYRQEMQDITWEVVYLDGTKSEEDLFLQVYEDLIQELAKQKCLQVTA
T10 sequence (P07814 whole entry): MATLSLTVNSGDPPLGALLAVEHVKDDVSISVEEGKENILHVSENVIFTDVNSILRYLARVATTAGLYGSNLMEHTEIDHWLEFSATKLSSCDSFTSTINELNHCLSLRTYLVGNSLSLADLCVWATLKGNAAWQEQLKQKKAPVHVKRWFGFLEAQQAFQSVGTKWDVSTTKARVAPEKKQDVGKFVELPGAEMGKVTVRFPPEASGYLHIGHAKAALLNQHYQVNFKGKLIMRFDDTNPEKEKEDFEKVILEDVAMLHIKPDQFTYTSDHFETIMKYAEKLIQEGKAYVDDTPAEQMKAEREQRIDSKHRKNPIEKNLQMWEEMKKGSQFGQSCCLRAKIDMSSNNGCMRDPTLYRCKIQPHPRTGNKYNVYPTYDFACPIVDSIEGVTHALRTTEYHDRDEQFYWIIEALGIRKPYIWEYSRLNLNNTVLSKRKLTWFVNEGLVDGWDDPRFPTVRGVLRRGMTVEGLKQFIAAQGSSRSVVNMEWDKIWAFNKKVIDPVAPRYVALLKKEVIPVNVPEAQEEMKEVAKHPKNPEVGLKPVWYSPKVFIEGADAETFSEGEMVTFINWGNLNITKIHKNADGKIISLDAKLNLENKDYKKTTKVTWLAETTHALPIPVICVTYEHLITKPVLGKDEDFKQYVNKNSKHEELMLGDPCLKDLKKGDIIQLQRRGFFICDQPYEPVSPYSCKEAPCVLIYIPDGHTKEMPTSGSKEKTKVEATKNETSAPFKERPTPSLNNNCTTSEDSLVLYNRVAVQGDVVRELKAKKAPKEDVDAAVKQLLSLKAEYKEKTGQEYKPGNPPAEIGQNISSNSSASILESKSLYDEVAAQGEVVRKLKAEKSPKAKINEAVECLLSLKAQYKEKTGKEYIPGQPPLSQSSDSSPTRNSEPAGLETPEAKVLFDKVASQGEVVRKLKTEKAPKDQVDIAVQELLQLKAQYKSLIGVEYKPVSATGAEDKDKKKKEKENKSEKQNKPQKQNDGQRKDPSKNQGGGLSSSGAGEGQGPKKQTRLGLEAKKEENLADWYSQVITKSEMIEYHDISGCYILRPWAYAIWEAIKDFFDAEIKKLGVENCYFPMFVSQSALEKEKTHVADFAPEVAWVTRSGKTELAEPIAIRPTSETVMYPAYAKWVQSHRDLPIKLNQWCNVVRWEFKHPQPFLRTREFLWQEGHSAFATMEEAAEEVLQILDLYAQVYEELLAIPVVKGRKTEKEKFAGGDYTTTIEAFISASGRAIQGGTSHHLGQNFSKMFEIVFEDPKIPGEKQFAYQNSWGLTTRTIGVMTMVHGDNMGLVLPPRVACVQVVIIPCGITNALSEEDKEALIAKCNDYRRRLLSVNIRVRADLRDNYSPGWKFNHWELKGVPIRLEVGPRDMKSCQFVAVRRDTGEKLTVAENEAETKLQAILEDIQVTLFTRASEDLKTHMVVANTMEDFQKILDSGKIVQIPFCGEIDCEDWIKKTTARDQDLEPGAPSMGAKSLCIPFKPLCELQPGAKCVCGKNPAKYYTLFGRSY
T5 sequence (P30085 whole entry): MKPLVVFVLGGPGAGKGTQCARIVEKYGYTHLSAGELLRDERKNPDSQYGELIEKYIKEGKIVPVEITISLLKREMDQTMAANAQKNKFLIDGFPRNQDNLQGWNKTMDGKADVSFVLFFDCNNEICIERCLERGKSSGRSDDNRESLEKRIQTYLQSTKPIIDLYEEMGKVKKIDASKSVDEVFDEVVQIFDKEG
T14 sequence (O75027 23-752): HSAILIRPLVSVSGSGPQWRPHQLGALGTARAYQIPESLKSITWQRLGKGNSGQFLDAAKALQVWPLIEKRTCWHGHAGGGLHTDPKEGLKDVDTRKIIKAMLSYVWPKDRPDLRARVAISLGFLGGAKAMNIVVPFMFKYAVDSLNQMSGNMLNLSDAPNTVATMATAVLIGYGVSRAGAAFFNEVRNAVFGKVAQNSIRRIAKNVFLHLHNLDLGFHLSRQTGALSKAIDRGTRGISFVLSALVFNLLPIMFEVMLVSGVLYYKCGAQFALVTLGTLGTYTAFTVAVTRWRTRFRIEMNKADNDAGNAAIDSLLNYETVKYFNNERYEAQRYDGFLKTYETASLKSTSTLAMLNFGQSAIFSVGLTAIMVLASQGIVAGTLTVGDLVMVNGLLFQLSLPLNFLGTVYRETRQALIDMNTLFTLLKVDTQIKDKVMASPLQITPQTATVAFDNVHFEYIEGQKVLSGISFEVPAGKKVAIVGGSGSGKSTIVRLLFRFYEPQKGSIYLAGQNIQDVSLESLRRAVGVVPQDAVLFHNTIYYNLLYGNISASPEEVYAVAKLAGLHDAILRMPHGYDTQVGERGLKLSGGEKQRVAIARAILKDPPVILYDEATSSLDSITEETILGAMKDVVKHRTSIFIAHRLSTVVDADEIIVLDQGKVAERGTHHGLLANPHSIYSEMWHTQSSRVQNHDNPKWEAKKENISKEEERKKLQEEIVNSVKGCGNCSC
T6 sequence (P00492 whole entry): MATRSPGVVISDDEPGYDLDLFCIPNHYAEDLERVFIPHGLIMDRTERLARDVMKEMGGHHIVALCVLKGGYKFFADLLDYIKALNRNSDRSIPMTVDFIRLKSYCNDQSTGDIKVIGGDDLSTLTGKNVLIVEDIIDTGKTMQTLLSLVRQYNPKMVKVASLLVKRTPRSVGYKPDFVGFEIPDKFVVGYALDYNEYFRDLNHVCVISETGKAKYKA

Cn1c(=O)[nH]c2ccc(-c3cccc(C(=O)NC4CCn5ccnc5C4)c3)cc21 (centres unmarked) [Z36-MP5, 3-(3-methyl-2-oxo-2,3-dihydro-1H-benzo[d]imidazol-5-yl)-N-(5,6,7,8-tetrahydroimidazo[1,2-a]pyridin-7-yl)benzamide]
Inhibition (%) by 1 μM Z36-MP5 (DDX18): −5.33%
Inhibition (%) by 1 μM Z36-MP5 (KIAA0564): 11.07%
tolerability (mouse weight, organ tissue histological staining) [1]: tolerated without significant toxicity
Inhibition (%) by 1 μM Z36-MP5 (PSMC5): −3.98%
Inhibition (%) by 1 μM Z36-MP5 (SMC3): −10.19%
Inhibition (%) by 1 μM Z36-MP5 (CMPK1): 2.41%
Inhibition (%) by 1 μM Z36-MP5 (HPRT1): 12.92%
Inhibition (%) by 1 μM Z36-MP5 (PRPS1L1, PRPS2): −13.63%
Inhibition (%) by 1 μM Z36-MP5 (ATAD1): 15.67%
Inhibition (%) by 1 μM Z36-MP5 (NRK1): 0.34%
inhibition at 1 µM (MCM4): 4.98%
Inhibition (%) by 1 μM Z36-MP5 (EPRS): 0.78%
Inhibition (%) by 1 μM Z36-MP5 (ABCF1): −8.08%
Inhibition (%) by 1 μM Z36-MP5 (PRKAG1; PRKAG1, SEQ ID NO: 167, ATP BS): −11.56%
Inhibition (%) by 1 μM Z36-MP5 (PRKAG1; PRKAG1, SEQ ID NO: 168, ATP BS): −7.08%
Inhibition (%) by 1 μM Z36-MP5 (CCT7): 10.91%
Inhibition (%) by 1 μM Z36-MP5 (PSMC6): −0.83%
Inhibition (%) by 1 μM Z36-MP5 (ABCB7): 0.34%
inhibition at 1 µM (PSMD9): 2.13%
inhibition at 1 µM (HSP90B2P, TRA1): -6.72%
